Experimental data published in PubChem BioAssay AID651703 (Broad Institute, 2012).

What follows are molecules tested against Transforming acidic coiled-coil-containing protein 3 (Homo sapiens) (UniProt Q9Y6A5) (assay: inhibition of ARNT PAS-B/TACC3 complex formation – biochemical, AlphaScreen, cherry-picked samples, confirmation (AID 651703;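 further: TACC3 partner is the GST-tagged E629A mutant dimer; hits lower the signal meaning they disrupt ARNT binding to TACC3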)). Conditions: AlphaScreen His-ARNT PAS-B / GST-TACC3 binding, luminescence.

SMILES | AC50
c1ccc(-c2nnc(-c3ccccn3)nc2N2CCC(C3CCCCC3)C2)cc1 (stereo not given) | 2.68 µM
c1ccc(-c2nc3ccccc3[nH]2)nc1 | 44 µM
COc1cc(C2C(C#N)=C(N)Oc3n[nH]c(-c4ccccn4)c32)cc(OC)c1OC (stereo not given) | 19.7 µM
Cc1ccc(-n2c(-c3ccc(Br)cc3)c[n+]3c2CCc2ccc4cccnc4c2-3)cc1 | 1.45 µM
COC(=O)Cc1cc(=O)n(-c2nc3ccccc3[nH]2)[nH]1 | 2.68 µM
O=C(N[C@@H]1CC[C@@H](CCn2cc(-c3ccccn3)nn2)O[C@H]1CO)c1ccncc1 | 16.7 µM
O=C(CC(NCc1ccccn1)C(=O)O)Nc1ccccc1Cl (stereo not given) | 0.638 µM
COC(=O)c1ccc2[nH]c3c(c2c1)CC(C)CC3 (stereo not given) | 33.2 µM
CC(C)C(=O)NC(c1ccco1)c1ccc2cccnc2c1O (stereo not given) | 0.957 µM
CC(NC1=CC(=O)c2cccnc2C1=O)C(O)c1ccccc1 (stereo not given) | 15.5 µM
Cc1nnc(NC(=O)c2ccc(S(=O)(=O)N3CCCCC3C)cc2)o1 (stereo not given) | 52 µM
CCCCC(=O)NC(c1cccc([N+](=O)[O-])c1)c1ccc2cccnc2c1O (stereo not given) | 4.22 µM
c1ccc(-c2nnc(-c3ccccn3)nc2NCC2CCOCC2)cc1 | < 0.5 µM
C#CCOCCOCCOCCNc1nc(N2CCN(C(=O)[C@H](CC(N)=O)n3cc([C@@H](N)CC(N)=O)nn3)CC2)nc(N2CCN(C(=O)[C@H](CC(N)=O)n3cc([C@@H](N)CC(N)=O)nn3)CC2)n1 | 47.1 µM
Cc1n[nH]c(=O)nc1N/N=C/c1ccco1 | 42.5 µM
Cc1ccccc1C(=O)Nc1nnc(-c2ccco2)o1 | 43.1 µM
Cn1c(-c2ccccc2)cnc1Nc1nc(-c2ccccn2)nnc1-c1ccccc1 | 2.26 µM
O=S(=O)(N[C@@H]1CCCN(Cc2ccc(OCCO)cc2)C1)c1cccc2cccnc12 | 16.2 µM
COc1cccc(/C=N/Nc2ccnc(=O)[nH]2)c1O | 9.05 µM
CCN(C(=O)COc1cccc2cccnc12)C1CCS(=O)(=O)C1 (stereo not given) | 45.1 µM
COc1cc(C(=O)NCc2nnc(SCC(=O)Nc3nccs3)o2)cc(OC)c1OC | 58.8 µM
C=CCNc1nc(-c2ccccn2)nnc1-c1ccccc1 | < 0.5 µM
O=c1cc(N/N=C/c2ccccc2)[nH]c(=O)[nH]1 | 31.8 µM

SMILES | AC50
Nc1ncnc(Oc2cccc3cccnc23)c1[N+](=O)[O-] | 11.1 µM
COc1ccc(CCNC(=O)CSc2nnc(Cc3csc(N)n3)n2C)cc1OC | 61 µM
Cc1ccc(CNc2nc(-c3ccccn3)nnc2-c2ccccc2)cc1 | 0.736 µM
COc1ccccc1-c1nnc(NC(=O)Cc2ccccc2)o1 | 35 µM
O=C(Oc1cccc2cccnc12)c1ccco1 | 9.83 µM
COc1ccc(NC(=O)CSc2ccc3nnc(-c4ccccn4)n3n2)cc1 | 26.2 µM
OCCN(Cc1cccnc1)Cc1ccccn1 | 2.28 µM
CC(C)Nc1nc(NC(C)C)nc(C(=O)OCCO)n1 | 41.8 µM
O=C(O)c1ncn(Cc2ccccc2)c1C(=O)O | 13.8 µM
O=C(NNc1ccccn1)C(=O)NNS(=O)(=O)c1ccc(F)cc1 | 15.5 µM
c1ccc(N=Nc2ccc3cccccc2-3)cc1 | 1.68 µM
O=C(CSc1nnc(CNC(=O)c2ccc(F)cc2)o1)Nc1nccs1 | 61.9 µM
O=C(CNCc1ccccn1)N1CCc2ccccc2C1 | 3.23 µM
O=c1[nH]c(N2CCOCC2)cc2ccccc12 | 63.8 µM
CC(C)(C)C(=O)Nc1ccccc1C(=O)NCCCn1ccnc1 | 17.4 µM
CC1CN(Cc2ccc(O)c3ncccc23)CC(C)O1 (stereo not given) | 2.59 µM
Cc1cccc(S(=O)(=O)N[C@@H]2CC[C@@H](CCn3cc(-c4ccccn4)nn3)O[C@@H]2CO)c1 | 26.7 µM
Cc1cc(C)c(S(=O)(=O)N2CCOC2CNC(=O)C(=O)NCCCn2ccnc2)c(C)c1 (stereo not given) | 5.58 µM
c1ccc(CNCCN2CCNCC2)nc1 | 6.79 µM
Cc1cccc(OCc2nc(-c3ccccn3)n[nH]2)c1 | 5.94 µM
C/C(=N\NC(=O)c1cccc2ccccc12)c1ccccn1 | 3.15 µM
Cc1ccccc1Nc1nc(N)nc(CN(C)Cc2ccccc2Cl)n1 | 53.5 µM
CCCCn1c(NC(=O)c2ccco2)c(C(=O)OCC)c2nc3ccccc3nc21 | 21.9 µM

SMILES | AC50
O=C(Cc1ccccc1)Nc1nnc(-c2ccco2)o1 | 56.9 µM
CC1CC1C(=O)Nc1nc(-c2ccccn2)cs1 (stereo not given) | 15.2 µM
CCC1CCCCN1S(=O)(=O)c1ccc(NC(=O)CSc2ncccc2C(=O)O)cc1 (stereo not given) | 15.4 µM
c1ccc(CNc2nc(-c3ccccn3)nc3ccccc23)cc1 | 11.4 µM
CCOC(=O)Cc1nnc(NC(=O)c2ncn[nH]2)s1 | 23.2 µM
Cc1ccc2nc(-c3ccccn3)c(NC3CCCC3)n2c1 | 10.2 µM
COc1ccccc1Nc1nc(N)nc(CN(C)C2CCCCC2)n1 | 37.7 µM
Oc1c(C(c2ccccn2)N2CCCCC2)cc(Cl)c2cccnc12 (stereo not given) | 1.33 µM
COc1cc2c(cc1O)C[C@H]1NCCc3cc4c(c-2c31)OCO4 | 27.7 µM
O=C(CSc1ccc(-c2ccccn2)nn1)NCc1ccc(Cl)cc1 | 11 µM
CCC(C)c1c(N)n(S(=O)(=O)c2ccc(C)cc2)oc1=O (stereo not given) | 44.1 µM
C[C@@H]1CCCCO[C@@H](CN(C)C(=O)Nc2cccc3ccccc23)[C@H](C)CN([C@@H](C)CO)C(=O)c2cc(NS(=O)(=O)c3cn(C)cn3)ccc2O1 | 56.4 µM
O=C(N[C@@H]1CC[C@@H](CCn2cc(-c3ccccn3)nn2)O[C@@H]1CO)c1cccnc1 | 13.1 µM
C[C@@H]1CN([C@H](C)CO)C(=O)c2cc(NC(=O)Nc3ccc(C(F)(F)F)cc3)ccc2O[C@@H](C)CCCCO[C@@H]1CN(C)Cc1ccc2c(c1)OCO2 | 38.1 µM
O=C(Oc1c(CN2CCOCC2)cc(Cl)c2cccnc12)c1cccs1 | 15.2 µM
CCOC(=O)c1cnc(Nc2nc3ccccc3o2)nc1CN1CCN(C)CC1 | 6.81 µM
c1ccc(CCNc2nc(-c3ccccn3)nc3ccccc23)cc1 | 20.1 µM
O=C(CSC1=NNC(c2ccccn2)S1)Nc1ccccc1 (stereo not given) | 0.823 µM
O=C(CSc1ccc(-c2ccccn2)nn1)N1CCCC1 | 3.05 µM
Fc1ccc(-c2ccc(CNCc3ccccn3)o2)cc1Cl | 17.5 µM
CSc1ccccc1NC(=O)CN(C)C(=O)COc1cccc2cccnc12 | 13.8 µM
Nn1c(SCC(=O)Nc2ccc3c(c2)OCCO3)nnc1-c1ccccn1 | 18.6 µM
CN1CCC(=O)N(CCOc2ccccc2)CC1 | 4.44 µM

SMILES | AC50
Oc1c(CN2CCN(c3ccc(F)cc3)CC2)cc(Cl)c2cccnc12 | 2.5 µM
Oc1ccc(CN2CCN(Cc3ccccc3)CC2)c2cccnc12 | 2.41 µM
COc1cccc(CNc2nc(-c3ccccn3)nnc2-c2ccccc2)c1 | 0.794 µM
O=C(NCCCn1ccnc1)C(=O)NCC(c1ccco1)N1CCN(c2ccccc2)CC1 (stereo not given) | 6.85 µM
Cc1c(C(=O)N(C)C)sc2nc(-c3ccccn3)[nH]c(=O)c12 | 2.78 µM
Cc1ccc(NC(=O)CNCc2ccccn2)cc1S(=O)(=O)N(C)C | 8.68 µM
O=C(Nc1nnc(SCc2ccc(F)cc2)s1)c1ccccn1 | 7.06 µM
O=C(CSc1ccc(-c2ccccn2)nn1)c1ccc([N+](=O)[O-])cc1 | 4.73 µM
COc1cc(NC(=O)CSc2ccc(-c3ccccn3)nn2)cc(OC)c1 | 1.78 µM
Cn1c(-c2ccccc2)cnc1N | 37.5 µM
O=C(COc1ccc([N+](=O)[O-])cc1)Nc1nc(-c2ccccn2)cs1 | 6.57 µM
CCOc1ccccc1NC(=O)CN(c1ccc(OC)cc1)S(=O)(=O)c1c(C)[nH]c(=O)[nH]c1=O | 10.5 µM
CCOc1ccc2c(c1)c(N=NC(=N)N)c(O)n2C | 53.9 µM
Cc1cc(C)c2nc(C)cc(N/N=C/c3ccc(O)cc3)c2c1 | 37.3 µM
COC(=O)c1ccc(C(=O)O)nc1 | 32.8 µM
O=C(CSc1ccc2nnc(-c3ccccn3)n2n1)Nc1ccc2c(c1)OCO2 | 46.5 µM
CN1CCN(C(=O)c2cccc(-c3cc(O)c4ncccc4c3)c2)CC1 | 2.72 µM
Cc1ccc(C(=O)Nc2cccc(C(=O)N/N=C/c3ccc(O)cc3)c2)cc1 | 32.7 µM
Cc1ncc(CO)c(/C=N/NC(=O)c2cc(Br)ccc2O)c1O | 8.86 µM
Cc1cccc(C(=O)Nc2nnc(-c3ccco3)o2)c1 | 5.86 µM
Cc1ccc(-n2c(SCC(N)=O)nnc2-c2ccccn2)cc1 | 34.7 µM
COc1cc(CNCc2ccccn2)ccc1OCc1ccc(Cl)cc1Cl | 36.6 µM
Cc1cccc(S(=O)(=O)N[C@H]2CC[C@@H](CCn3cc(-c4ccccn4)nn3)O[C@@H]2CO)c1 | 24.3 µM

SMILES | AC50
COCc1cc(=O)[nH]c(Nc2nc3ccc(C)cc3o2)n1 | 7.59 µM
Cc1cccc(CNc2nc(-c3ccccn3)nnc2-c2ccccc2)c1 | < 0.5 µM
Cc1cccc(Nc2nc(-c3ccccn3)cs2)n1 | 6.95 µM
CC(=O)Nc1cccc(NC(=O)CSc2ccc(-c3ccccn3)nn2)c1 | 2.78 µM
CCOc1cc(CNCc2ccccn2)cc(Cl)c1OCC | 45 µM
CCNC(=O)C(=O)N/N=C/c1cc([N+](=O)[O-])ccc1O | 2.62 µM
Cc1[nH]n(-c2ccccc2)c(=O)c1/C=N/NC(=O)COc1ccccc1[N+](=O)[O-] | 15.8 µM
Oc1c(C(c2ccc(Cl)cc2)N2CCCC2)cc(Cl)c2cccnc12 (stereo not given) | 1.36 µM
Cc1nc(Nc2ccc(C(=O)O)cc2)nc(Nc2ccc(C(=O)O)cc2)c1[N+](=O)[O-] | 22.1 µM
Cc1nnc(-c2ccccc2)c(=O)n1/N=C/c1c(O)ccc2ccccc12 | 49.2 µM
COc1ccc(C2c3ccc(O)cc3Oc3ncn4nc(-c5ccccn5)nc4c32)cc1OC (stereo not given) | 52.5 µM
Cc1[nH][nH]c(=O)c1C(c1ccc(-c2ccc(C(=O)O)cc2)o1)c1c(C)[nH][nH]c1=O | 64.1 µM
Cc1nnc(NC(=O)C2CCN(S(=O)(=O)c3cc([N+](=O)[O-])ccc3Cl)CC2)o1 | 21.9 µM
CN(C)C(=O)CSc1cccc2cccnc12 | 4.27 µM
C/C=C/c1ccc([C@@H]2[C@H](CO)N(Cc3ccccn3)[C@H]2CNC(C)=O)cc1 | 47.8 µM
c1ccc(-c2nc3ccccn3c2NC2CCCC2)nc1 | 13.9 µM
N#Cc1ccc(OCC(=O)NCCCn2ccnc2)cc1 | 8.65 µM
O=C(CSc1cccc2cccnc12)Nc1ccc(S(=O)(=O)N2CCOCC2)cc1 | 10.9 µM
CC(=O)NC(c1ccc(Cl)cc1Cl)c1ccc2cccnc2c1O (stereo not given) | 5.14 µM
CCCCCc1cc(=O)oc2c(C(CCN3CCCC3)c3ccc(N(C)C)cc3)c(OC)cc(OC)c12 (stereo not given) | 6.86 µM
Cc1ccc(C(=O)Nc2nc(-c3ccccn3)cs2)s1 | 4.78 µM
CCSc1nnc(NC(=O)c2ccccn2)s1 | 3.61 µM
CCc1cc(C(=O)Nc2nc(-c3ccccn3)cs2)sc1C | 22.9 µM
